The test system of data set [1] is mock-infected cells. Briefly: Assessment of cytotoxicity (cell viability in parallel). The data set is classed as cell-based. On the procedure: (§1) Virology studies are preformed to assess the antiviral potency substituted heterobetulinic acids. The antiviral effect of these compounds is evaluated by parallel studies of inhibition of viral replication and cell viability. Viruses and cells for use in these assays may be obtained from the NIH AIDS Reagent Program.
Plates are incubated at 37° C. in a humidified CO2 incubator for six days. Following incubation of the HIV-1 infected cells with the compound cell viability is assessed using a calorimetric assay of metabolic activity, such as an XTT, MTT or WST-1 assay, or a BrdU incorporation assay. Cytotoxicity of the compound is determined in parallel by measurement of the viability of mock-infected cells treated with the compound. Uninfected cells without compounds are used for a 100% viability control. Infected cells to which no compound is added provide a value for 100% of cell death due to viral infection. The number of surviving or viable cells is quantified by a tetrazolium-based colorimetric method using the CellTiter96 reagent (Promega, Madison, Wis.).

Data set [2] concerns HIV-1. Briefly: Inhibition of early phase virus replication (MAGI cell β-gal indicator assay). The data set is classed as cell-based. Conditions: Human immunodeficiency virus 1; MAGI cells, MOI of 0.00125. The protocol: as §1
The effect of compounds on the early phase virus replication, from virus particle attachment through early gene, Tat expression, are evaluated using a CD4-positive LTR-β-galatosidase-expressing HeLa (MAGI) cell indicator line. This assay, described previously to assess the level of β-gal expression, has been modified and adopted in our laboratory. β-gal levels are quantified by photon detection assay, with virus infected cells that are not treated with a capsid formation inhibitor giving the highest level of expression. […]
MAGI Cells are trypsinization and counted using the trepan blue exclusion method, and resuspended at a pre-determined concentration (usually 2×10^4 cells/well) in 10% FBS complete RPMI 1640. […]
The viruses are diluted to a pre-determined MOI/well, typically 0.01 to 1, in Pre-MAGI media plus 20 μg/well DEAE-dextran. […]
Plates are incubated at room temperature (25° C.) for 60-90 minutes or until constant light emission is reached. Plate(s) are read in a luminometer and measured for 0.1-1.0 sec/well.

Where only a bound is given, the exact number is not on record here.

Broadly, the EC50 is the concentration giving half of the maximal effect. Low values mean an effect from little substance, high ones a need for much substance. For `CC1=CC[C@]2(C(=O)O)CC[C@]3(C)[C@H](CC[C@@H]4[C@@]5(C)CCC(OC(=O)CC(C)(C)C(=O)O)C(C)(C)[C@@H]5CC[C@]43C)[C@H]2[C@@H]1C` (stereo partly shown) [Compound 11], the cytotoxicity result in data set [1] was “Neither compound was cytotoxic”. Also, the EC50 in data set [2] is below 2 µM.

Consider `CC1=CC[C@]2(CO)CC[C@]3(C)[C@H](CC[C@@H]4[C@@]5(C)CC[C@H](OC(=O)CC(C)(C)C(=O)O)C(C)(C)[C@@H]5CC[C@]43C)[C@H]2[C@@H]1C` [Compound 12], for which, in data set [1], the cytotoxicity entry is reported as “Neither compound was cytotoxic”. Also, the EC50 in data set [2] was below 0.1 µM.
